From patent publication US20130183239A1, “ISOTOPIC CARBON CHOLINE ANALOGS” (IMPERIAL COLLEGE, priority 2010, published 2013) come the findings set out here.

Series [1] concerns HCT116 cells. Put plainly: [18F]D4-FCH-phosphocholine formation in HCT116 cells treated with PD0325901. It counts as cell-based, human. The note with it: PD0325901 1 μM for 24 h, 60-min uptake. The method, then: HCT116 cells were grown in T150 flasks in triplicate until they were 70% confluent and then treated with vehicle (1% DMSO in growth medium) or 1 μmol/L PD0325901 in vehicle for 24 h. Cells were pulsed for 1 h with 1.1 MBq of either […]D4—FCH or [^18F]FCH. The cells were washed three times in ice-cold phosphate buffered saline (PBS), scraped into 5 mL PBS, and centrifuged at 500×g for 3 min and then resuspended in 2 mL ice-cold methanol for HPLC analysis as described above for tissue samples. […] Briefly, HCT116 cells were grown in 100 mm dishes in triplicate and incubated with 5.0 MBq [^18F]FCH for 60 min at 37° C. to form the putative [^18F]FCH-phosphate. The cells were washed with 5 mL ice-cold PBS twice and then scraped and centrifuged at 750×g (4° C., 3 min) in 5 mL PBS. Cells were homogenized in 1 mL of 5 mmol/L Tris-HCl (pH 7.4) containing 50% (v/v) glycerol, 0.5 mmol/L MgCl2, and 0.5 mmol/L ZnCl2 and incubated with 10 units bacterial (type III) alkaline phosphatase (Sigma) at 37° C. in a shaking water bath for 30 min to dephosphorylate the [^18F]FCH-phosphate. The reaction was terminated by adding ice-cold methanol. Samples were processed as per plasma above and analyzed by radio-HPLC. Control experiments were done without alkaline phosphatase. […]

Series [2] concerns HCT116 tumors. Put plainly: PD0325901 treatment of HCT116 tumor-bearing mice with [18F]D4-FCH-PET. It counts as in vivo. The method, then:
(§1) Size-matched HCT116 tumor bearing mice were randomized to receive daily treatment by oral gavage of vehicle (0.5% hydroxypropyl methylcellulose+0.2% Tween 80) or 25 mg/kg (0.005 mL/g mouse) of the mitogenic extracellular kinase inhibitor, PD0325901, prepared in vehicle. [^18F]D4-FCH-PET scanning was done after 10 daily treatments with the last dose administered 1 h before scanning. […] The results are illustrated in FIGS. 18 and 19.
These studies were performed in a reproducible tumor model system in which treatment outcomes had been previously characterized, i.e., the human colon carcinoma xenograft HCT116 treated with PD0325901 daily for 10 days (Leyton, J., et al., “Noninvasive imaging of cell proliferation following mitogenic extracellular kinase inhibition by PD0325901”, Mol Cancer Ther 2008; 7(9):3112-21). […] All imaging variables decreased after 10 days of drug treatment (P=0.05, FIG. 18). […] To understand the biomarker changes, the intrinsic cellular effect of PD0325901 on D4-FCH-phosphocholine formation was examined by treating exponentially growing HCT116 cells in culture with PD0325901 for 24 h and measuring the 60-min uptake of [^18F]D4-FCH in vitro.

In series [3] the test system is choline kinase A (CHKA). The experiment in a line: Western blot of choline kinase A expression in HCT116 tumors after PD0325901. It counts as in vivo, human. The conditions noted are these: HCT116 tumors at day 10, western blot. The method, then:
HCT116 tumors from mice that were injected with PD0325901 (25 mg/kg daily for 10 days, orally) or vehicle were analyzed for CHKA expression by western blotting. β-actin was used as the loading control. (b) Summary densitometer measurements for CHKA expression expressed as a ratio to β-actin. The results are the mean ratios±SE; n=3, * P=0.05.
as §1
To understand further the mechanisms regulating [^18F]D4-FCH uptake with drug treatment, changes in CHKA expression in PD0325901 and vehicle-treated tumors excised after PET scanning were assessed.

For series [4], the system named is CHKA. The experiment in a line: CHKA expression in exponentially growing cells treated with PD0325901. It counts as cell-based.
The conditions of series [5]: C3H-Hej, mouse, in vivo, iv, 15 min.
For series [6] the following is noted: mouse, in vivo, 60 min. The method, then: (§2) Dynamic [^18F]FCH and [^18F]D4-FCH imaging scans were carried out on a dedicated small animal PET scanner, quad-HIDAC (Oxford Positron Systems). The features of this instrument have been described previously (Barthel, H., et al., Cancer Res 2003; 63(13):3791-8). For scanning the tail veins, vehicle- or drug-treated mice were cannulated after induction of anesthesia (isofluorane/O2/N2O). The animals were placed within a thermostatically controlled jig (calibrated to provide a rectal temperature of ˜37° C.) and positioned prone in the scanner. [^18F]FCH or [^18F]D4-FCH (2.96-3.7 MBq) was injected via the tail vein cannula and scanning commenced. Dynamic scans were acquired in list mode format over a 60 min period as reported previously (Leyton, J., et al., Cancer Research 2006; 66(15):7621-9). The acquired data were sorted into 0.5 mm sinogram bins and 19 time frames (0.5×0.5×0.5 mm voxels; 4×15, 4×60, and 11×300 s) for image reconstruction, which was done by filtered back-projection using a two-dimensional Hamming filter (cutoff 0.6). The image data sets were visualized using the Analyze software (version 6.0; Biomedical Imaging Resource, Mayo Clinic). Cumulative images of 30 to 60 min dynamic data were used for visualization of radiotracer uptake and to draw regions of interest. Regions of interest were defined manually on five adjacent tumor regions (each 0.5 mm thickness). Dynamic data from these slices were averaged for each tissue (liver, kidney, muscle, urine, and tumor) and at each of the 19 time points to obtain time versus radioactivity curves. Corresponding whole body time versus radioactivity curves representing injected radioactivity were obtained by adding together radioactivity in all 200×160×160 reconstructed voxels. Tumor radioactivity was normalized to whole-body radioactivity and expressed as percent injected dose per voxel (% ID/vox). The normalized uptake of radiotracer at 60 min (% ID/vox60) was used for subsequent comparisons. The average of the normalized maximum voxel intensity across five slices of tumor % IDvox60max was also use for comparison to account for tumor heterogeneity and existence of necrotic regions in tumor. The area under the curve was calculated as the integral of % ID/vox from 0 to 60 min.

The subject of series [7] is human melanoma SKMEL-28 xenografts. The note with it: mouse, in vivo, 60 min. The method, then: as §2
A short description of series [8]: Potassium permanganate oxidation study. Format: physicochemical. The note with it: 1 hour post-treatment with potassium permanganate, room temperature, radio-HPLC. An excerpt:
Reagents and Conditions: i) KMnO4, Na2CO3, H2O, rt.

In series [9] the test system is choline oxidase. The conditions noted are these: 60 min, 1.76 MBq/mL, pH 7.
The conditions of series [10]: mouse, in vivo. The method, then:
Metabolite analysis of tissues including liver, kidney and tumor by HPLC was also accomplished. […] Choline and its metabolites lack any UV chromophore to permit presentation of chromatograms of the cold unlabelled compound simultaneously with the radioactivity chromatograms.
Liver, kidney, and tumor samples were obtained at 30 min. All samples were snap-frozen in liquid nitrogen. For analysis, samples were thawed and kept at 4° C. immediately before use. To ˜0.2 mL plasma was added ice-cold methanol (1.5 mL). The mixture was then centrifuged (3 min, 15,493×g, 4jC). The supernatant was evaporated to dryness using a rotary evaporator (Heidoloph Instruments) at a bath temperature of 40° C. The residue was suspended in mobile phase (1.1 mL), clarified (0.2 Am filter), and analyzed by HPLC. Liver, kidney, and tumor samples were homogenized in ice-cold methanol (1.5 mL) using an IKA Ultra-Turrax T-25 homogenizer and subsequently treated as per plasma samples (above). All samples were analyzed by radio-HPLC on an Agilent 1100 series HPLC system (Agilent Technologies) equipped with a γ-RAM Model 3 γ-detector (IN/US Systems) and Laura 3 software (Lablogic). The stationary phase comprised a Waters μBondapak C18 reverse-phase column (300×7.8 mm) (Waters, Milford, Mass., USA). Samples were analyzed using a mobile phase comprising solvent A (acetonitrile/water/ethanol/acetic acid/1.0 mol/L ammonium acetate/0.1 mol/L sodium phosphate; 800/127/68/2/3/10) and solvent B (acetonitrile/water/ethanol/acetic acid/1.0 mol/L ammonium acetate/0.1 mol/L sodiumphosphate; 400/400/68/44/88/10) with a gradient of 0% B for 6 min, then 0→100% B in 10 min, 100% B for 0.5 min, 100→0% B in 1.5 min then 0% B for 2 min, delivered at a flow rate of 3 mL/min.

“Also recorded” adds a separate entry of the source.

Regarding `O=C(NOC[C@H](O)CO)c1ccc(F)c(F)c1Nc1ccc(I)cc1F` [PD0325901], in series [1], the “[18F]D4-FCH-phosphocholine formation” value is “significantly inhibited”. Further, the “tumor [18F]D4-FCH uptake / retention” value in series [2] (HCT116 tumors, 10 days of 25 mg/kg daily vs vehicle, 25 mg/kg) was “significant reduction in tumor [^18F]D4-FCH uptake; also recorded: marked reduction in radiotracer retention”. Moreover, the “reduction in tumor size” value in series [2] (day 10 compared to the pretreatment group, 25 mg/kg daily, oral) was found to be 12.2%. In series [3], the “CHKA protein expression in vivo” value is reported as “significant reduction”. Besides, the “CHKA expression in vitro” value in series [4] was “reduction of CHKA expression”.

Consider `C[N+](C)(C[18F])CCO` [[^18F]FCH, [^18F]Fluoromethylcholine, reference compound], for which the “conversion to betaine metabolite in plasma” value in series [5] is about 80%. Moreover, in series [6], the “Bladder (urine) % ID/vox60” value was found to be 6.70±0.71 % ID/vox, the “Kidney % ID/vox60” value was found to be 15.97±4.65 % ID/vox and the “Liver radioactivity % ID/vox60” value is 18.75±4.28 % ID/vox. In addition, the “Tumor % ID/vox60” value in [7] is reported as 5.50±0.49 % ID/vox. The “parent compound still present” value in series [8] is given as “less than 40%”. Moreover, the parent radiotracer present in series [9] worked out at 11±8%. In [10], the “unknown metabolite (possibly the aldehyde intermediate) in liver” value is reported as “not found”. Besides, in series [10] (30 min), the “kidney radioactivity as phosphocholine” value was found to be 31.8±9.8%, the “kidney radioactivity in the form of betaine” value was 53.5±5.3% and the “unknown metabolite in kidney” value is 3.3±0.6%. Also, the “form of radioactivity in tumors” value in [10] (iv, 30 min) is “significant levels of [^18F]FCH-betaine”.
